Assay results taken from US9242993B2, “Morpholino substituted bicyclic pyrimidine urea or carbamate derivatives as mTOR inhibitors” (CELLZOME LIMITED, priority 2011, dated 2016).

Legend:
mTOR = mTOR (Homo sapiens, UniProt P42345); experiment: biochemical
[1] = target: DNA-dependent protein kinase (DNA-PK) (Homo sapiens, UniProt P78527); experiment: biochemical
[2] = test system: S6RP serine-240/244 phosphorylation; experiment: In vitro phospho-S6 cellular assay; format: cell-based; conditions: Homo sapiens; HEK293T/17 cells, 2 hours; read-out: pS6 inhibition value (IC50), activity level
Method in brief: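 HEK293T/17 cells (40,000/well for pS6RP, 80,000/well for pAkt) in DMEM, 2% FCS treated 2 h at 37 °C with 8 compound concentrations (0.1% DMSO). Lysates assayed by MesoScale sandwich electrochemiluminescence for pS6RP Ser240/244 or pAkt Ser473. Curves fitted by sigmoidal variable-slope regression.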

[3] = test system: IFNγ release in whole blood; experiment: In vitro human whole blood assay (IFNγ release); format: cell-based; conditions: αCD3/αCD28 and IL-2 stimulation, 18 hours, read-out: WB inhibition value (pIC50) (converted)
Procedure: This assay measures IFNγ release in whole blood after αCD3/αCD28 and IL-2 treatment. The whole blood contains circulating T lymphocytes; αCD3/αCD28 stimulation mimics antigen receptor signalling, resulting in epigenetic changes to the IFNG gene locus, such that when IL-2 is added, IFNγ is produced.
Human whole blood, with Na-heparin as the anticoagulant, is obtained from Clinical Trials Laboratory Services. Blood is diluted 1.4 times with RPMI 1640 (Lonza, BE12-167F) and 175 μl/well is distributed in a low evaporation 96-well plates (Falcon, BD Labware, 353072). Blood is treated with 10 concentrations of test compounds or DMSO alone for controls (final DMSO concentration 0.2%) and incubated at 37° C. for 1 hour. Blood is then stimulated with 1 μg/ml αCD3 (R&D Systems, MAB100), 1 μg/ml αCD28 (BD Pharmingen, 555725) and IL-2 at 10 ng/ml (Peprotech, 200-02). Blood is then left to incubate at 37° C. for 18 hours. After, plates are spun at 250 g for 5 minutes to pellet blood cells and 25 μl of plasma is transferred to a MesoScale plate coated with an antibody to IFNγ (MesoScale Discovery K151AEC-2) containing 25 μl/well MesoScale Discovery Blocking Solution-2. Plates have been blocked by incubating with 25 μl/well MesoScale Discovery Blocking Solution-2 for 30 minutes at room temperature. After the transfer of sera to the MSD plate, the IFNγ protein is captured on the coated antibody by incubation at room temperature for 2 hour with gentle shaking. After the capture step the plate is washed three times with 150 μl/well of 1×PBS-Tween wash buffer and 25 μl/well detection antibody conjugated with a Sulfo-Tag is added and incubated for 2 hours at room temperature with gentle shaking. Subsequently the antibody solution is removed and the plate is washed 3 times with 150 μl/well 1×PBS-Tween wash buffer and 150 μl/well MesoScale Discovery Read buffer is added. The plates are analysed on a MSD 2400 Plate Reader (MesoScale Discovery). Data analysis is performed using nonlinear regression for a sigmoidal dose-response with a variable slope.

DNA-dependent protein kinase (DNA-PK), sequence (P78527 whole entry): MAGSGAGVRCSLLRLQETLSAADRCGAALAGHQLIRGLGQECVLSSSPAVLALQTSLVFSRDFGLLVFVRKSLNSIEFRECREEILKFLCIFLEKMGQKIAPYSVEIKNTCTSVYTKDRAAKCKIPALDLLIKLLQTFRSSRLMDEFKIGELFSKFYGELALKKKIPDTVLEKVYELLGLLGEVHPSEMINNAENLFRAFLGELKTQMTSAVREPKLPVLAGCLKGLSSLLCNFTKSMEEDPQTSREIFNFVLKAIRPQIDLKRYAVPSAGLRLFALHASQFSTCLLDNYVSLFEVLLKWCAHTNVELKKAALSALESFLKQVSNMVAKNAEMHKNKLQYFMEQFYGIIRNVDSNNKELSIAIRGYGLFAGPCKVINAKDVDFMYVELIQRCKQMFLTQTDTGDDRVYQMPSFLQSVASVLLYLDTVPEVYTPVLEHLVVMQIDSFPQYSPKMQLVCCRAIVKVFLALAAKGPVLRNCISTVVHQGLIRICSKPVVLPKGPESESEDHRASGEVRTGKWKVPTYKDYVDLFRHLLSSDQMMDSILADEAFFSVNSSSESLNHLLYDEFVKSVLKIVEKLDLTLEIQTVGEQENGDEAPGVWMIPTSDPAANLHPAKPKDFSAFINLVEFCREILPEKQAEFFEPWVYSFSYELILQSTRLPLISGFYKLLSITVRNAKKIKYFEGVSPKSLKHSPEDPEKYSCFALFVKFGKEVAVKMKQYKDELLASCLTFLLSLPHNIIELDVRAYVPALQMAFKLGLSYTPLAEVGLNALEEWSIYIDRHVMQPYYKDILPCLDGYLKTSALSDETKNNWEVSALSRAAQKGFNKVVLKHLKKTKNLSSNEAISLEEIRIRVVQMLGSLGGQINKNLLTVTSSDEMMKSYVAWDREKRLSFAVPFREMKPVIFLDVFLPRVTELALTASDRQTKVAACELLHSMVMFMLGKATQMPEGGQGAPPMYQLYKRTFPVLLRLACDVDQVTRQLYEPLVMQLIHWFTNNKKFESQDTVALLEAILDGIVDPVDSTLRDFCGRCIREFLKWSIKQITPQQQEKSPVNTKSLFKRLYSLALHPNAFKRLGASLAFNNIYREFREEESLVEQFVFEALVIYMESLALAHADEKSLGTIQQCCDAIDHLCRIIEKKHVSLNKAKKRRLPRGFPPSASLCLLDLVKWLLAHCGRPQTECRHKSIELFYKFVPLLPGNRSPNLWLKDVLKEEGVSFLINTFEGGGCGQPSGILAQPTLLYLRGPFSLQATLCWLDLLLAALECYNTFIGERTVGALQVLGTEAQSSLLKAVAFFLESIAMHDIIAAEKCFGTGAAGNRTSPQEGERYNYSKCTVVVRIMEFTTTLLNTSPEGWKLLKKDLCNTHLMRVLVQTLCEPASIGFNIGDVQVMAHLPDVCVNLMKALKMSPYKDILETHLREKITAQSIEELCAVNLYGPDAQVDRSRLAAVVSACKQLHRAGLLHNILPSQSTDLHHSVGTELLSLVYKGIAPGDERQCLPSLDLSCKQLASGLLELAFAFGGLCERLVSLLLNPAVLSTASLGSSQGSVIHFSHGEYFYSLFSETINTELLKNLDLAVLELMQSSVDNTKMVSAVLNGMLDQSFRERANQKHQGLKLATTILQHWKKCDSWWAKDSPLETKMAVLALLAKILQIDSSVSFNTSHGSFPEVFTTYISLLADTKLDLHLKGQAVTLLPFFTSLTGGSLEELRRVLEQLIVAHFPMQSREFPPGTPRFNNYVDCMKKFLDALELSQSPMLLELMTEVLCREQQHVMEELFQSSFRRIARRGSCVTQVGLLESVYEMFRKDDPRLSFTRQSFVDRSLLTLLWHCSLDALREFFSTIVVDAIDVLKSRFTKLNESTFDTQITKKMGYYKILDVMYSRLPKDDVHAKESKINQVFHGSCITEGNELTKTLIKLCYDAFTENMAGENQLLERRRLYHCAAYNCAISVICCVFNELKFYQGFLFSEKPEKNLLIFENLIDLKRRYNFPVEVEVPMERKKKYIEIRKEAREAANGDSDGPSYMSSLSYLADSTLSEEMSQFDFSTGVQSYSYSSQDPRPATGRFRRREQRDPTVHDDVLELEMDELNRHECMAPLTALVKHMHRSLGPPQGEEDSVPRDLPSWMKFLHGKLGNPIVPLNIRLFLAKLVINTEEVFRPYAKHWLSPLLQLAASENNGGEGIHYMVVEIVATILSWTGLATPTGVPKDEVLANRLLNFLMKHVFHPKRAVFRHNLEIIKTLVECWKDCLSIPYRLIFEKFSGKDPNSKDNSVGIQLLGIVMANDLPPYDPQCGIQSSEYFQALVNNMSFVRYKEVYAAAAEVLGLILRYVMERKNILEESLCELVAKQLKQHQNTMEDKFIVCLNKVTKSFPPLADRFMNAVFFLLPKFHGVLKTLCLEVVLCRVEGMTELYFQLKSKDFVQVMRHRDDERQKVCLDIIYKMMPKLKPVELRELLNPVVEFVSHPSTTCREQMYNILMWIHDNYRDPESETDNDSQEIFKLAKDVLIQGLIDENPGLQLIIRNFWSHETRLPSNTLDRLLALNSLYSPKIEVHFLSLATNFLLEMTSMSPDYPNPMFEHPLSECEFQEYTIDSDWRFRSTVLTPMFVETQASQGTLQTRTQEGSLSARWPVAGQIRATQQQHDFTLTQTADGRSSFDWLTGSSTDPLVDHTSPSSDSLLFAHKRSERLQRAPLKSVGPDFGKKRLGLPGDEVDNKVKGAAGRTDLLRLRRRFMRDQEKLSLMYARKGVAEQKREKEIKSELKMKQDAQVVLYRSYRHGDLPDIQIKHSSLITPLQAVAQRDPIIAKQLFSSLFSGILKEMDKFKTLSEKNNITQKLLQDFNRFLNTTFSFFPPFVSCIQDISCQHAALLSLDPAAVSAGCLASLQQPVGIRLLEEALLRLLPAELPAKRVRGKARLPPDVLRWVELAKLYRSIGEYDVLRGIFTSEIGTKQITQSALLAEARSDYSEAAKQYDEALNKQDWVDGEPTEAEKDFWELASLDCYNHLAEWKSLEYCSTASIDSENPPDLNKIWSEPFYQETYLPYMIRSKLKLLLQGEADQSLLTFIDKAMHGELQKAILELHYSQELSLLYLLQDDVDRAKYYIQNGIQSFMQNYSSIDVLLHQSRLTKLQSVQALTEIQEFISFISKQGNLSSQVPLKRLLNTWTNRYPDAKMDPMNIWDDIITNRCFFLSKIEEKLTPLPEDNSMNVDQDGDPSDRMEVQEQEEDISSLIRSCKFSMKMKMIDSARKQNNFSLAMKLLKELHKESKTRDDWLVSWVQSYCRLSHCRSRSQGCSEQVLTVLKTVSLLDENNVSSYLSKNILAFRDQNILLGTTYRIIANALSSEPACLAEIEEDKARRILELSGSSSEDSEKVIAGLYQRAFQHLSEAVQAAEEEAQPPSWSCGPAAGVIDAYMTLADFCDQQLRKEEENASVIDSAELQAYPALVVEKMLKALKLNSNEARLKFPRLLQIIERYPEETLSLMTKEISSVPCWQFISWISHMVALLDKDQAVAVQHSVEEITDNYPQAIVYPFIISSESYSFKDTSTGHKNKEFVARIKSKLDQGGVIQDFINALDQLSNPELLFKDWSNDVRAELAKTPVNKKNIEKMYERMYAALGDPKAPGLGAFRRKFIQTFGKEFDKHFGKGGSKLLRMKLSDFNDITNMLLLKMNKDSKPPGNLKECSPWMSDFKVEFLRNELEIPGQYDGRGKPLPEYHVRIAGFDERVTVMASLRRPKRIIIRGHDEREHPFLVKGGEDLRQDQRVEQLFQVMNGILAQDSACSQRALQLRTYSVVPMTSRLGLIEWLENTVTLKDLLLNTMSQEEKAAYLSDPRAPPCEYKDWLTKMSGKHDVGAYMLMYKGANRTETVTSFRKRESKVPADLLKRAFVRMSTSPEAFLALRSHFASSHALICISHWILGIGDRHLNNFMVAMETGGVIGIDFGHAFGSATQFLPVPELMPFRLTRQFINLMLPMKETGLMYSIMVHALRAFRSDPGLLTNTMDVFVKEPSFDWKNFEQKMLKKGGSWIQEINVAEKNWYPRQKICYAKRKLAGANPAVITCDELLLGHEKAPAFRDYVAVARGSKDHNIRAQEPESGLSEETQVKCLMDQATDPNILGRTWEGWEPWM

In the case of `CC[C@H]1COCCN1c1nc(-c2ccc(NC(=O)NC3CC3)cc2)nc2c1C(C)S(=O)(=O)C2` (stereo partly drawn) [Example 47, 1-cyclopropyl-3-(4-(4-((S)-3-ethylmorpholino)-5-methyl-6,6-dioxido-5,7-dihydrothieno[3,4-d]pyrimidin-2-yl)phenyl)urea], the IC50 (mTOR) is reported as 100 to 1000 nM, the IC50 [1] is reported as over 10000 nM and the IC50 [2] is reported as under 100 nM. It also gave an IC50 [3] of 79.4 nM.
Molecule `CC[C@H]1COCCN1c1nc(-c2ccc(NC(=O)NC3CC3)cc2)nc2c1CS(=O)(=O)C2(C)C` [Example 51, (S)-1-cyclopropyl-3-(4-(4-(3-ethylmorpholino)-7,7-dimethyl-6,6-dioxido-5,7-dihydrothieno[3,4-d]pyrimidin-2-yl)phenyl)urea] has an IC50 (mTOR) of under 100 nM, an IC50 [1] of over 10000 nM and an IC50 [2] of under 100 nM. The IC50 [3] was 158 nM.
`CCNC(=O)Nc1ccc(-c2nc3c(c(N4CCOC[C@@H]4CC)n2)[C@@H](C)S(=O)(=O)C3)cc1` [Example 52, 1-ethyl-3-(4-((R)-4-((S)-3-ethylmorpholino)-5-methyl-6,6-dioxido-5,7-dihydrothieno[3,4-d]pyrimidin-2-yl)phenyl)urea] was tested, and the IC50 (mTOR) was under 100 nM, the IC50 [1] was over 10000 nM and the IC50 [2] was under 100 nM. It also gave an IC50 [3] of 31.6 nM.
`CCNC(=O)Nc1ccc(-c2nc3c(c(N4CCOC[C@@H]4CC)n2)[C@H](C)S(=O)(=O)C3)cc1` [Example 53, 1-ethyl-3-(4-((S)-4-((S)-3-ethylmorpholino)-5-methyl-6,6-dioxido-5,7-dihydrothieno[3,4-d]pyrimidin-2-yl)phenyl)urea] showed an IC50 (mTOR) of under 100 nM, an IC50 [1] of over 10000 nM and an IC50 [2] of under 100 nM. For the same molecule, the IC50 [3] was 63.1 nM.
In the case of `CNC(=O)Nc1ccc(-c2nc3c(c(N4CCOC[C@@H]4C)n2)C(C)S(=O)(=O)C3)cc1` (stereo partly drawn) [Example 58, 1-methyl-3-(4-(5-methyl-4-((S)-3-methylmorpholino)-6,6-dioxido-5,7-dihydrothieno[3,4-d]pyrimidin-2-yl)phenyl)urea], the IC50 (mTOR) is reported as under 100 nM, the IC50 [1] is reported as over 10000 nM and the IC50 [2] is reported as under 100 nM. For the same molecule, the IC50 [3] was 251 nM.
For `CC1(C)c2nc(-c3ccc(NC(=O)NC4CC4)cc3)nc(N3C4CCC3COC4)c2CS1(=O)=O` [Example 59, 1-(4-(4-(3-oxa-8-azabicyclo[3.2.1]octan-8-yl)-7,7-dimethyl-6,6-dioxido-5,7-dihydrothieno[3,4-d]pyrimidin-2-yl)phenyl)-3-cyclopropylurea], the IC50 (mTOR) was under 100 nM, the IC50 [1] was over 10000 nM and the IC50 [2] was under 100 nM. For the same molecule, the IC50 [3] was 100 nM.
Work on `CCNC(=O)Nc1ccc(-c2nc(N3C4CCC3COC4)c3c(n2)C(C)(C)S(=O)(=O)C3)cc1` [Example 60, 1-(4-(4-(3-oxa-8-azabicyclo[3.2.1]octan-8-yl)-7,7-dimethyl-6,6-dioxido-5,7-dihydrothieno[3,4-d]pyrimidin-2-yl)phenyl)-3-ethylurea] yielded an IC50 (mTOR) of under 100 nM, an IC50 [1] of over 10000 nM and an IC50 [2] of under 100 nM. The IC50 [3] was 200 nM.
For `C[C@H]1COCCN1c1nc(-c2ccc(NC(=O)NCCF)cc2)nc2c1CS(=O)(=O)C2(C)C` [Example 61, (S)-1-(4-(7,7-dimethyl-4-(3-methylmorpholino)-6,6-dioxido-5,7-dihydrothieno[3,4-d]pyrimidin-2-yl)phenyl)-3-(2-fluoroethyl)urea], the IC50 (mTOR) was under 100 nM, the IC50 [1] was over 10000 nM and the IC50 [2] was under 100 nM. The IC50 [3] was 251 nM.
`CC[C@H]1COCCN1c1nc(-c2ccc(NC(=O)NC)c(F)c2)nc2c1CS(=O)(=O)C2(C)C` [Example 64, (S)-1-(4-(4-(3-ethylmorpholino)-7,7-dimethyl-6,6-dioxido-5,7-dihydrothieno[3,4-d]pyrimidin-2-yl)-2-fluorophenyl)-3-methylurea] gave an IC50 (mTOR) of 100 to 1000 nM, an IC50 [1] of over 10000 nM and an IC50 [2] of under 100 nM. It also gave an IC50 [3] of 158 nM.
`CNC(=O)Nc1ccc(-c2nc(N3CCOC[C@@H]3C)c3c(n2)C(C)(C)S(=O)(=O)C3)c(F)c1` [Example 66, (S)-1-(4-(7,7-dimethyl-4-(3-methylmorpholino)-6,6-dioxido-5,7-dihydrothieno[3,4-d]pyrimidin-2-yl)-3-fluorophenyl)-3-methylurea] gave an IC50 (mTOR) of under 100 nM, an IC50 [1] of over 10000 nM and an IC50 [2] of under 100 nM. The IC50 [3] was 1000 nM.
With `CCNC(=O)Nc1ccc(-c2nc3c(c(N4CCOC[C@@H]4C)n2)C(CC)S(=O)(=O)C3)cc1` (stereo partly drawn) [Example 67, 1-ethyl-3-(4-(5-ethyl-4-((S)-3-methylmorpholino)-6,6-dioxido-5,7-dihydrothieno[3,4-d]pyrimidin-2-yl)phenyl)urea] the IC50 (mTOR) was under 100 nM, the IC50 [1] was over 10000 nM and the IC50 [2] was under 100 nM. It also gave an IC50 [3] of 316 nM.
Work on `C[C@H]1COCCN1c1nc(-c2ccc(NC(=O)NC3COC3)cc2)nc2c1CS(=O)(=O)C2(C)C` [Example 68, (S)-1-(4-(7,7-dimethyl-4-(3-methylmorpholino)-6,6-dioxido-5,7-dihydrothieno[3,4-d]pyrimidin-2-yl)phenyl)-3-(oxetan-3-yl)urea] yielded an IC50 (mTOR) of 100 to 1000 nM, an IC50 [1] of over 10000 nM and an IC50 [2] of under 100 nM. It also gave an IC50 [3] of 316 nM.
`CCNC(=O)Nc1ccc(-c2nc(N3CCOC[C@@H]3C)c3c(n2)C(C)(C)S(=O)(=O)C3)c(F)c1` [Example 69, (S)-1-(4-(7,7-dimethyl-4-(3-methylmorpholino)-6,6-dioxido-5,7-dihydrothieno[3,4-d]pyrimidin-2-yl)-3-fluorophenyl)-3-ethylurea] gave an IC50 (mTOR) of under 100 nM, an IC50 [1] of over 10000 nM and an IC50 [2] of under 100 nM. The IC50 [3] was 126 nM.
Molecule `C[C@H]1COCCN1c1nc(-c2ccc(NC(=O)NC3CC3)cc2)nc2c1CS(=O)(=O)C(C)(C)C2` [Example 70, (S)-1-cyclopropyl-3-(4-(7,7-dimethyl-4-(3-methylmorpholino)-6,6-dioxido-7,8-dihydro-5H-thiopyrano[4,3-d]pyrimidin-2-yl)phenyl)urea] has an IC50 (mTOR) of under 100 nM, an IC50 [1] of over 10000 nM and an IC50 [2] of under 100 nM. The IC50 [3] was 158 nM.
`CC1Cc2nc(-c3ccc(NC(=O)NC4CC4)cc3)nc(N3CCOC[C@@H]3C)c2CS1(=O)=O` (stereo partly drawn) [Example 71, 1-cyclopropyl-3-(4-(7-methyl-4-((S)-3-methylmorpholino)-6,6-dioxido-7,8-dihydro-5H-thiopyrano[4,3-d]pyrimidin-2-yl)phenyl)urea] gave an IC50 (mTOR) of under 100 nM, an IC50 [1] of over 10000 nM and an IC50 [2] of under 100 nM. For the same molecule, the IC50 [3] was 794 nM.
For `CC1Cc2nc(-c3ccc(NC(=O)NC4CC4)cc3)nc(N3CCOC[C@@H]3C)c2C(C)S1(=O)=O` (stereo partly drawn) [Example 72, 1-cyclopropyl-3-(4-(5,7-dimethyl-4-((S)-3-methylmorpholino)-6,6-dioxido-7,8-dihydro-5H-thiopyrano[4,3-d]pyrimidin-2-yl)phenyl)urea], the IC50 (mTOR) was under 100 nM, the IC50 [1] was over 10000 nM and the IC50 [2] was under 100 nM. For the same molecule, the IC50 [3] was 398 nM.
With `CCNC(=O)Nc1ccc(-c2nc3c(c(N4CCOC[C@@H]4C)n2)CS(=O)(=O)C(C)(C)C3)cc1` [Example 73, (S)-1-(4-(7,7-dimethyl-4-(3-methylmorpholino)-6,6-dioxido-7,8-dihydro-5H-thiopyrano[4,3-d]pyrimidin-2-yl)phenyl)-3-ethylurea] the IC50 (mTOR) was under 100 nM, the IC50 [1] was over 10000 nM and the IC50 [2] was under 100 nM. The IC50 [3] was 63.1 nM.
`CC1c2c(nc(-c3ccc(NC(=O)NC4CC4)cc3)nc2N2CCOC[C@@H]2C)CCS1(=O)=O` (stereo partly drawn) [Example 74, 1-cyclopropyl-3-(4-(5-methyl-4-((S)-3-methylmorpholino)-6,6-dioxido-7,8-dihydro-5H-thiopyrano[4,3-d]pyrimidin-2-yl)phenyl)urea] showed an IC50 (mTOR) of under 100 nM, an IC50 [1] of over 10000 nM and an IC50 [2] of under 100 nM. The IC50 [3] was 501 nM.
